# Test results taken from PubChem BioAssay AID1963858 (Molecular Pharmacology Branch, DTP, NCI, 2024).
# Test system: HOP-62 multicell spheroids with HUVEC/MSC, viability
# Experiment: Anticancer human tumor HOP-62 cell line growth inhibition [KRAS2];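 also: viability read after a week of compound exposure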;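 as to viability, T/C: 100% = DMSO vehicle-treated spheroids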
# Conditions: for IC50: curve of first compound; for viability, T/C: stronger effect = lower value
# Excerpt: Multicellular complex tumor spheroid response to RAS pathway inhibitors in combination with a targeted agents in patient-derived cell lines with oncogenic KRAS variants from multiple cancer types
# A high-throughput screen of multi-cell type tumor spheroids was designed to identify active combinations of targeted small molecules and KRAS pathway inhibitors. Complex spheroids include a stromal component modeled by human endothelial cells (HUVEC) and fibroblasts modeled by human mesenchymal stem cells (MSCs). The concentration ranges selected for each drug and investigational agent were based upon clinically achievable concentrations if the clinical Cmax of the agent was known.
# Compounds. The drugs and investigational agents: BI-3406 (NSC825286), BAY-293 (NSC824723), batoprotafib (TNO155; NSC825523), sotorasib (AMG 510; NSC818433), MRTX1257 (NSC819558), elimusertib (BAY 1895344; NSC800525), molibresib (GSK525762; NSC774829), temuterkib (LY3214996; NSC803410), venetoclax (NSC766270), alisertib (NSC759677), olaparib (NSC753686), talazoparib (NSC767125), erdafitinib (NSC781556), ipatasertib (NSC767898), cabozantinib (NSC761068), nintedanib (NSC756659), abemaciclib (NSC768073), docetaxel (NSC628503), trametinib (NSC758246), and sapanisertib (NSC764658) were obtained from the National Cancer Institute (NCI) Developmental Therapeutics Program Chemical Repository. The FDA-approved anticancer drug set is available from the Developmental Therapeutics Program. […] The stock solutions were prepared in dimethyl sulfoxide (DMSO, Sigma-Aldrich, St. Louis, MO, cat. D2650) at 800-fold the tested concentration and stored at -70 degrees C prior to their use. All drugs and investigational agents were tested over a range starting from a high concentration at or near the clinical Cmax and decreasing in half-log increments. If the clinical Cmax for an agent had not been determined, the highest concentration tested was 10 microM.
# Cell Culture. All cells were maintained in an incubator at 37 degrees C and 5% CO2 with 95% humidity. The PDC lines were cultured according to standard operating procedures established by the NCI PDMR (https://pdmr.cancer.gov/sops/default.htm). Briefly, all PDCs were thawed and cultured in Matrigel-coated flasks prepared with a working solution of 1X Ham's F-12 nutrient mix, without supplementation (Invitrogen, Waltham, MA, cat. 11765054), 100 U/mL penicillin-streptomycin (Invitrogen, cat. 15140122), and 2.5% Matrigel (Corning Inc., Corning, NY, cat. 354248) for the first three passages. All PDCs were cultured in complete DMEM/F-12 media containing advanced DMEM/F-12 (Invitrogen, cat. 12634028), 4.9% defined fetal bovine serum, heat inactivated (HyClone Laboratories Inc., Logan, UT, cat. SH30070.03HI), 389 ng/mL hydrocortisone (Sigma-Aldrich, cat. H4001), 9.7 ng/mL human EGF recombinant protein (Invitrogen, cat. PHG0313), 23.4 microg/mL adenine (Sigma-Aldrich, cat. A2786), 97.3 U/mL penicillin-streptomycin (Invitrogen, cat. 15140122), 1.9 mM L-glutamine (Invitrogen, cat. 25030081), and 9.7 microM Y-27632 dihydrochloride (Tocris Bioscience, Bristol, United Kingdom, cat. 1254). The PDCs were cultured in complete DMEM/F12 media without 9.7 microM Y-27632 dihydrochloride for at least two passages prior to the screen. The established cell line HOP-62 was cultured in RPMI 1640 medium, HEPES (Invitrogen, cat. 22400105) with 10% defined fetal bovine serum (HyClone Laboratories Inc., cat. SH30070.03) and 2 mM L-glutamine (Invitrogen, cat. 25030081). The pooled donor HUVEC were cultured in endothelial cell growth medium 2 (PromoCell, Heidelberg, Germany, cat. C-22011) and the hMSC were cultured in mesenchymal stem cell growth medium 2 (PromoCell, cat. C-28009). For all experiments, HUVEC and hMSC were used at passages </=5, while the malignant cell lines were used at passages </=15. […]
# [1] = second compound 0.1 µM, first compound 0.0316 µM
# [2] = second compound 0.316 µM, first compound 0.0316 µM
# [3] = second compound 1 µM, first compound 0.0316 µM
# [4] = second compound 3.16 µM, first compound 0.0316 µM
# [5] = second compound 10 µM, first compound 0.0316 µM
# [6] = second compound 0.1 µM, first compound 0.1 µM
# [7] = second compound 0.1 µM, first compound 0.316 µM
# [8] = second compound 0.1 µM, first compound 1 µM
# [9] = second compound 0.1 µM, first compound 3.16 µM
# [10] = second compound 0.1 µM, first compound 10 µM
# [11] = second compound 0.316 µM, first compound 0.1 µM
# [12] = second compound 0.316 µM, first compound 0.316 µM
# [13] = second compound 0.316 µM, first compound 1 µM
# [14] = second compound 0.316 µM, first compound 3.16 µM
# [15] = second compound 0.316 µM, first compound 10 µM
# [16] = second compound 1 µM, first compound 0.1 µM
# [17] = second compound 1 µM, first compound 0.316 µM
# [18] = second compound 1 µM, first compound 1 µM
# [19] = second compound 1 µM, first compound 3.16 µM
# [20] = second compound 1 µM, first compound 10 µM
# [21] = second compound 3.16 µM, first compound 0.1 µM
# [22] = second compound 3.16 µM, first compound 0.316 µM
# [23] = second compound 3.16 µM, first compound 1 µM
# [24] = second compound 3.16 µM, first compound 3.16 µM
# [25] = second compound 3.16 µM, first compound 10 µM
# [26] = second compound 10 µM, first compound 0.1 µM
# [27] = second compound 10 µM, first compound 0.316 µM
# [28] = second compound 10 µM, first compound 1 µM
# [29] = second compound 10 µM, first compound 3.16 µM
# [30] = second compound 10 µM, first compound 10 µM
smiles,measurement,setting,value
CC(=O)Nc1cccc(-n2c(=O)n(C3CC3)c(=O)c3c(Nc4ccc(I)cc4F)n(C)c(=O)c(C)c32)c1 + C=CC(=O)N1CCN(c2nc(=O)n(-c3c(C)ccnc3C(C)C)c3nc(-c4c(O)cccc4F)c(F)cc23)C(C)C1,IC50,second compound 0.1 µM,0.78 nM
same,IC50,second compound 0.316 µM,0.879 nM
same,IC50,second compound 1 µM,0.915 nM
same,IC50,second compound 3.16 µM,0.561 nM
same,IC50,second compound 10 µM,0.124 nM
same,"viability, T/C","second compound 0.1 µM, first compound 0.0001 µM",78.5%
same,"viability, T/C","second compound 0.1 µM, first compound 0.000316 µM",61.2%
same,"viability, T/C","second compound 0.1 µM, first compound 0.001 µM",49.1%
same,"viability, T/C","second compound 0.1 µM, first compound 0.00316 µM",29.7%
same,"viability, T/C","second compound 0.1 µM, first compound 0.01 µM",18.9%
same,"viability, T/C",[1],14.7%
same,"viability, T/C","second compound 0.316 µM, first compound 0.0001 µM",61.6%
same,"viability, T/C","second compound 0.316 µM, first compound 0.000316 µM",72.7%
same,"viability, T/C","second compound 0.316 µM, first compound 0.001 µM",43.8%
same,"viability, T/C","second compound 0.316 µM, first compound 0.00316 µM",30.2%
same,"viability, T/C","second compound 0.316 µM, first compound 0.01 µM",19.2%
same,"viability, T/C",[2],16.8%
same,"viability, T/C","second compound 1 µM, first compound 0.0001 µM",73.8%
same,"viability, T/C","second compound 1 µM, first compound 0.000316 µM",61.7%
same,"viability, T/C","second compound 1 µM, first compound 0.001 µM",51%
same,"viability, T/C","second compound 1 µM, first compound 0.00316 µM",32%
same,"viability, T/C","second compound 1 µM, first compound 0.01 µM",22.6%
same,"viability, T/C",[3],18.5%
same,"viability, T/C","second compound 3.16 µM, first compound 0.0001 µM",77.2%
same,"viability, T/C","second compound 3.16 µM, first compound 0.000316 µM",50.6%
same,"viability, T/C","second compound 3.16 µM, first compound 0.001 µM",44.5%
same,"viability, T/C","second compound 3.16 µM, first compound 0.00316 µM",39.4%
same,"viability, T/C","second compound 3.16 µM, first compound 0.01 µM",26.2%
same,"viability, T/C",[4],22.1%
same,"viability, T/C","second compound 10 µM, first compound 0.0001 µM",53.8%
same,"viability, T/C","second compound 10 µM, first compound 0.000316 µM",39%
same,"viability, T/C","second compound 10 µM, first compound 0.001 µM",43%
same,"viability, T/C","second compound 10 µM, first compound 0.00316 µM",34.8%
same,"viability, T/C","second compound 10 µM, first compound 0.01 µM",26.8%
same,"viability, T/C",[5],22.8%
COC(=O)c1ccc2c(C(=Nc3ccc(N(C)C(=O)CN4CCN(C)CC4)cc3)c3ccccc3)c(O)[nH]c2c1 + C=CC(=O)N1CCN(c2nc(=O)n(-c3c(C)ccnc3C(C)C)c3nc(-c4c(O)cccc4F)c(F)cc23)C(C)C1,IC50,second compound 0.1 µM,< 31.6 nM
same,IC50,second compound 0.316 µM,< 31.6 nM
same,IC50,second compound 1 µM,< 31.6 nM
same,IC50,second compound 3.16 µM,< 31.6 nM
same,IC50,second compound 10 µM,< 31.6 nM
same,"viability, T/C",[1],40.2%
same,"viability, T/C",[6],30.1%
same,"viability, T/C",[7],25.5%
same,"viability, T/C",[8],23.3%
same,"viability, T/C",[9],24.8%
same,"viability, T/C",[10],13%
same,"viability, T/C",[2],36.4%
same,"viability, T/C",[11],29.9%
same,"viability, T/C",[12],26.8%
same,"viability, T/C",[13],25.7%
same,"viability, T/C",[14],21.7%
same,"viability, T/C",[15],14.3%
same,"viability, T/C",[3],37.2%
same,"viability, T/C",[16],32.5%
same,"viability, T/C",[17],26.1%
same,"viability, T/C",[18],26.9%
same,"viability, T/C",[19],26.7%
same,"viability, T/C",[20],2.61%
same,"viability, T/C",[4],40.5%
same,"viability, T/C",[21],31.5%
same,"viability, T/C",[22],29.9%
same,"viability, T/C",[23],27.5%
same,"viability, T/C",[24],22.7%
same,"viability, T/C",[25],2.66%
same,"viability, T/C",[5],47%
same,"viability, T/C",[26],36.2%
same,"viability, T/C",[27],55.4%
same,"viability, T/C",[28],30.9%
same,"viability, T/C",[29],10.2%
same,"viability, T/C",[30],1.93%
COc1cc(Nc2ncc3c(n2)-c2ccc(Cl)cc2C(c2c(F)cccc2OC)=NC3)ccc1C(=O)O + C=CC(=O)N1CCN(c2nc(=O)n(-c3c(C)ccnc3C(C)C)c3nc(-c4c(O)cccc4F)c(F)cc23)C(C)C1,IC50,second compound 0.1 µM,< 31.6 nM
same,IC50,second compound 0.316 µM,< 31.6 nM
same,IC50,second compound 1 µM,< 31.6 nM
same,IC50,second compound 3.16 µM,< 31.6 nM
same,IC50,second compound 10 µM,< 31.6 nM
same,"viability, T/C",[1],35.3%
same,"viability, T/C",[6],29.2%
same,"viability, T/C",[7],23.2%
same,"viability, T/C",[8],23.4%
same,"viability, T/C",[9],23.3%
same,"viability, T/C",[10],16.6%
same,"viability, T/C",[2],42.6%
same,"viability, T/C",[11],31.5%
same,"viability, T/C",[12],31.8%
same,"viability, T/C",[13],32.6%
same,"viability, T/C",[14],21.8%
same,"viability, T/C",[15],20%
same,"viability, T/C",[3],27.6%
same,"viability, T/C",[16],38.6%
same,"viability, T/C",[17],35.4%
same,"viability, T/C",[18],31.6%
same,"viability, T/C",[19],27.7%
same,"viability, T/C",[20],21.9%
same,"viability, T/C",[4],37.6%
same,"viability, T/C",[21],36.7%
same,"viability, T/C",[22],34%
same,"viability, T/C",[23],33.7%
same,"viability, T/C",[24],28.7%
same,"viability, T/C",[25],22%
same,"viability, T/C",[5],39.2%
same,"viability, T/C",[26],32.3%
same,"viability, T/C",[27],31.9%
same,"viability, T/C",[28],33%
same,"viability, T/C",[29],33.4%
same,"viability, T/C",[30],25.5%
